From BindingDB's records for doi:10.1021/jm00196a019 (1979)

Test system: Enterococcus faecalis
Experiment: Antibacterial activity against Streptococcus faecalis assessed as growth inhibition

`Nc1nc(N)c2cc(S(=O)(=O)c3ccc4ccccc4c3)ccc2n1` [6-naphthalen-2-ylsulfonylquinazoline-2,4-diamine] was tested, and the IC50 was 0.02 nM.
